In article PMC2972656 (Bioorganic & medicinal chemistry, 2010):
Structures can show the parent of a compound that is named as a salt. Blank lines part the entries; values can stand above or below the molecule they belong to.

Assays:
[1] = tested on: other receptors; test: NIMH supported PDSP screen; assay type: binding
[2] = tested on: alcohol preferring (P) rats; details: 15–60 mg/kg, comparable with chlordiazepoxide; cited from earlier work
[3] = biological target: T1, α1β3γ2 GABAA/BzR (Homo sapiens, UniProt P14867+P18507); details: binding; cited from earlier work
[4] = biological target: T1, α1β3γ2 GABAA/BzR; test: [3H]flunitrazepam competition binding, α1β3γ2; details: for selectivity for the α1β3γ2 subtype: enantiomeric sec-butyl esters
[5] = biological target: α5β3γ2 GABAA/BzR (Homo sapiens, UniProt P18507+P31644); test: [3H]flunitrazepam competition binding, α5β3γ2
[6] = biological target: α2β3γ2 GABAA/BzR (Homo sapiens, UniProt P18507+P47869); test: [3H]flunitrazepam competition binding, α2β3γ2
[7] = tested on: BzR; test: Binding to BzR, overall statement; set-up: species or system human; details: Boc protection at position-9

SMILES: CCCOc1cc2c(cn1)[nH]c1ccccc12 [2(3-PBC), 3-propoxy-β-carboline hydrochloride]
interactions at other receptors [1]: neither βCCT, 3PBC, nor WYS8 exhibited significant interactions at other receptors | effects in the plus maze [2]: anxiolytic effects | selectivity for the α1 site over the α5 subtype [3]: over 150 fold | selectivity for the α1 subtype over the α2 and α3 receptors [3]: 10 fold

SMILES: C#Cc1ccc2[nH]c3cnc(C(=O)OC(C)(C)C)cc3c2c1 [7(WYS8), 6-Ethynl-9H-β-carboline-3-carboxylic acid t-butyl ester]
interactions at other receptors [1]: neither βCCT, 3PBC, nor WYS8 exhibited significant interactions at other receptors

SMILES: C[C@@H](OC(=O)c1cc2c(cn1)[nH]c1ccccc12)C(F)(F)F [compound 22, (R)-1,1,1-Trifluoroisopropyl β-carboline-3-carboxylate]
selectivity for α1 isoforms over α5 isoforms ([4]; binding): ~70 fold

SMILES: CC[C@H](C)OC(=O)c1cc2c(cn1)[nH]c1ccccc12 [compound 23, (S)-β-Carboline-3-carboxylic acid sec-butyl ester]
selectivity for the α1β3γ2 subtype ([4]; binding): ~4 fold | Ki [5]: 1440 nM

SMILES: CC[C@@H](C)OC(=O)c1cc2c(cn1)[nH]c1ccccc12 [compound 24, (R)-β-Carboline-3-carboxylic acid sec-butyl ester]
selectivity for the α1β3γ2 subtype ([4]; binding): ~4 fold | Ki [6]: 32.5 nM

Second part, the molecule after the results:

Ki [4]: 830 nM
SMILES: c1ccc(COc2cc3c4ccccc4nc-3c[nH]2)cc1 [compound 35, 3-benzyloxy β-carboline]

Ki [5]: ≥ 1000 nM
SMILES: CC(C)COc1cc2c(cn1)[nH]c1ccccc12 [compound 37]

binding to BzR [7]: did not bind to BzR at all
SMILES: C#Cc1ccc2c(c1)c1cc(C(=O)OC(C)(C)C)ncc1n2C(=O)OC(C)(C)C [compound 40]

binding to BzR [7]: did not bind to BzR at all
SMILES: CC(C)(C)OC(=O)c1cc2c3cc(I)ccc3n(C(=O)OC(C)(C)C)c2cn1 [compound 41]
